Data set [1] concerns the target p38a (Homo sapiens, UniProt Q16539). Description: p38a kinase K (Ki) and IC50 values. The format is biochemical.
Data set [2] addresses p3813 (Homo sapiens, UniProt Q15759). The experiment in a line: p3813 kinase K (Ki) and IC50 values. Type of data set: biochemical.
The nature of data set [3]: PK profile of the Day 1, 3 and 5 oral dosing regimen (drug levels). The format is in vivo, human. The text has this: This study investigated the efficacy, safety and tolerability of two different dosing regimens of 3-[5-amino-4-(3-cyanobenzoyl)-pyrazol-1-yl]-N-cyclopropyl-4-methyl benzamide added to SoC (systemic corticosteroids and/or antibiotics) versus placebo added to SoC in subjects with severe acute exacerbations of asthma. The proposed doses take into account trough levels based on PK modelling to ensure that the drug rapidly achieves and remains at effective concentrations between doses.
Overall, a dose-dependent reduction in TNF-α levels has been observed following doses ranging from 0.1 to 75 mg 3-[5-amino-4-(3-cyanobenzoyl)-pyrazol-1-yl]-N-cyclopropyl-4-methylbenzamide, although flattening of this effect to between 45 to 50% of placebo levels occurred between doses of 30 and 75 mg. A number of PK studies have been performed looking at both dosing intervals (Days 1, 3 and 5 (FIGS. 1-4, top panels) versus Days 1, 4 and 7 (FIGS. 1-4 bottom panels)), as well as dose levels (approximately 75/40/40 mg (FIG. 1); approximately 75/20/20 (FIG. 2); approximately 40/40/40 mg (FIG. 3); approximately 40/20/20 mg (FIG. 4), etc.). Based on exposures of the various regimens, there is limited benefit in dosing beyond Day 5 for a typical exacerbation.

A short description of data set [4]: Oral bioavailability in the rat. The following applies: in vivo, estimated.
Data set [5] in a line: Oral bioavailability in the dog. As to conditions: in vivo, estimated.
The nature of data set [6]: Oral bioavailability in the monkey. As to conditions: in vivo, estimated.
Data set [7] can be described thus: Plasma protein binding, free fraction in human plasma samples. The format is in vitro ADME.
The test system of data set [8] is p38a and p3813. The experiment in a line: Estimated enzyme inhibition from drug levels relative to Ki and IC50. The method, then:
The concentration based on free fraction is at or above 740 nM for the duration of the dosing interval. Cmax is approximately 2 μM based on the first dose.

The values below come from patent US10617674B2, “Dosage regimen for the treatment of acute exacerbations of inflammatory conditions” (MEREO BIOPHARMA 1 LIMITED, priority 2016, dated 2020).

pIC50, pKi: −log10 of the molar value.

Sequence of p38a (Q16539 whole entry): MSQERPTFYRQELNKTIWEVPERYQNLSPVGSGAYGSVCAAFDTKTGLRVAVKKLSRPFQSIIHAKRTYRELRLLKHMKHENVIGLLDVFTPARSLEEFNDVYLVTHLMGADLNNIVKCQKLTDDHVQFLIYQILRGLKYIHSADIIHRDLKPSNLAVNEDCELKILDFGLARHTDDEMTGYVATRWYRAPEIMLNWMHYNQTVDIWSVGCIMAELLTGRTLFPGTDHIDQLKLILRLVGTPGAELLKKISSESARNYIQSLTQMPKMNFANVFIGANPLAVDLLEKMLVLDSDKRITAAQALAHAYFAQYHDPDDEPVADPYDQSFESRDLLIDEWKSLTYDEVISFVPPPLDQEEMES
Sequence of p3813 (Q15759 whole entry): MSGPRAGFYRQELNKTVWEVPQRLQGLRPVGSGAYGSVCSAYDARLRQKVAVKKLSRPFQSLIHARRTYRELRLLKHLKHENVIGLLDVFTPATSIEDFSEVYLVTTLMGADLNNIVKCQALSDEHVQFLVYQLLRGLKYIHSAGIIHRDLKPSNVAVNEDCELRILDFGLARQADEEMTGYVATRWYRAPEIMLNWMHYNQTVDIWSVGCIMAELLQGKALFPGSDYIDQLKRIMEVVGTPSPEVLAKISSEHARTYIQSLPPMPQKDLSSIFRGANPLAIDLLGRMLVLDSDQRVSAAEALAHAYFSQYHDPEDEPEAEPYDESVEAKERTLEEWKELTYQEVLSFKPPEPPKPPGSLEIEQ

For orientation: pIC50 means the IC50 on a negative log10 scale, so that one unit is a factor of ten. For orientation: pKi means the negative decadic logarithm of the Ki, by convention in mol/L. What is called Cmax is the peak of the concentration-time curve. In general, bioavailability refers to the share of a dose that reaches the circulation, judged against a reference dose that is usually intravenous. What is called fraction unbound is the share of the substance not bound to proteins or other matrix. Take `Cc1ccc(C(=O)NC2CC2)cc1-n1ncc(C(=O)c2cccc(C#N)c2)c1N` [3-[5-amino-4-(3-cyanobenzoyl)-pyrazol-1-yl]-N-cyclopropyl-4-methylbenzamide]: in data set [1], the pIC50 is 7.43 and the pKi is 7.31. Further, in data set [2], the pIC50 was 6.97 and the pKi was 7.14. Further, in data set [3] (dosing at Day 1, 3 and 5), the drug levels maintained entry is “above 220 ng/mL” and the plasma concentration was determined as 5.7 µM. Further, in data set [3] (for the duration of the dosing interval), the “concentration based on free fraction” value is on record as at least 740 nM. In data set [3] (human, plasma, oral, based on the first dose), this compound displayed a Cmax of about 2000 nM. Further, the bioavailability in data set [4] was 93%. In data set [5], the bioavailability was 87%. For the same compound, in data set [6], the bioavailability was 90%. Moreover, the fraction unbound in data set [7] was 0.13 to 0.25. Moreover, in data set [8], the “duration of >99% enzyme inhibition” value is recorded as 6 days and the enzyme inhibition is over 99%.
